What is called pKi is the negative decadic logarithm of the Ki, by convention in mol/L. For orientation: pEC50 means the EC50 on a negative log10 scale, so that one unit is a factor of ten. The Emax is the maximal effect, on the per cent scale that the assay sets. The Ki is the dissociation constant of the complex between target and ligand, obtained from inhibition or displacement. As a reminder, the EC50 is the concentration giving half of the maximal effect. Higher therefore signals a less potent agent.

pEC50, pKi: −log10 of the molar value. Like-named read-outs stand apart in the source and are kept apart here.

The target in experiment [1] is T1, 5HT2A receptor (Homo sapiens, UniProt P28223). Put plainly: biochemical. The class given is binding. The arrangement: expressed in transfected cells; crude membranes. The conditions noted are these: for pKi: read-out: 5HT2A Ki; for Ki: 5HT2A Ki (nM).
T1 sequence (P28223 whole entry): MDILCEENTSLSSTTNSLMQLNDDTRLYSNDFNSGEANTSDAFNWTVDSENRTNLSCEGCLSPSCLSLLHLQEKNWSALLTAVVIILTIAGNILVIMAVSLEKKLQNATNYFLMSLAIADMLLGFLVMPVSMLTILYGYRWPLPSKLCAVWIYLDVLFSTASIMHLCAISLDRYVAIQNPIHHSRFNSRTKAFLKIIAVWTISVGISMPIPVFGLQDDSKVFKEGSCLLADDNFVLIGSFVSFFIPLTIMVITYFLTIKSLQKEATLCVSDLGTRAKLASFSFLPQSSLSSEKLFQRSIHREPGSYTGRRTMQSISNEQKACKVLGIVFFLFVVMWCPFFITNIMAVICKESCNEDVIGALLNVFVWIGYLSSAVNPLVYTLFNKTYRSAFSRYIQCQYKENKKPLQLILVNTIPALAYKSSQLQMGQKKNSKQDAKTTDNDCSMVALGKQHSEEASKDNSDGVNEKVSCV
Experiment [2] deals with T1, 5HT2A receptor. Put plainly: cell-based. Details: expressed in transfected cells; host or cells: HEK293T cells, transient co-transfection. To be noted: for Emax: HEK-293T.
Experiment [3] has as its target T1, 5HT2A receptor. As to the kind of experiment: cell-based. Details: expressed in transfected cells; host or cells: HEK293T cells, transient co-transfection. To be noted: BRET1 beta-arrestin2 recruitment; for pEC50: read-out: 5HT2A β-Arr EC50; for Emax: HEK-293T, normalized to 5-HT, read-out: 5HT2A β-Arr Emax (%); for EC50: 5HT2A β-Arr EC50 (nM).
Setting [4] is: secondary binding assay, Cheng-Prusoff.
[5] abbreviates: BRET2 Gαq dissociation, HEK293T, read-out: 5HTA Gq EC50.
Where [6] appears, read: BRET2 Gαq dissociation, HEK293T, normalized to 5-HT, read-out: 5HTA Gq Emax (%).
The mark [7] stands for this setting: secondary radioligand binding, Ki from IC50 by Cheng-Prusoff.
Where [8] appears, read: 5HT2A Gq EC50 (nM), BRET2 Gαq dissociation, HEK293T cells.
The mark [9] stands for this setting: BRET2 Gαq dissociation, HEK293T cells, normalized to 5-HT, read-out: 5HT2A Gq Emax (%).
[10] abbreviates: 5HTA Gq EC50 (nM), BRET2 Gαq dissociation, HEK293T.
Where [11] appears, read: BRET2 Gαq dissociation, HEK293T cells, read-out: 5HT2A Gq EC50.
Setting [12] is: read-out: 5HTA Gq Emax (%), BRET2 Gαq dissociation, HEK293T, normalized to 5-HT.

For `CN1CCC=C(c2c[nH]c3c(Cl)c(F)ccc23)C1` [Example 128, 7-chloro-6-fluoro-3-(1-methyl-1,2,5,6-tetrahydropyridin-3-yl)-1H-indole], on 5HT2A receptor [1] (setting [4]), the negative logarithm of the Ki (pKi) is 7.82. Moreover, the negative-log EC50 (pEC50) is 7.92 on 5HT2A receptor [2] (setting [5]) and 7.18 on 5HT2A receptor [3] (HEK293T). The Emax is 89.2% on 5HT2A receptor [2] (setting [6]) and 56.5% on 5HT2A receptor [3] (HEK293T).
Compound `CCc1cccc2c(C3=CCCN(C)C3)n[nH]c12` [Example 122, 7-ethyl-3-(1-methyl-1,2,5,6-tetrahydropyridin-3-yl)-1H-indazole] gave a Ki on 5HT2A receptor [1] (setting [7]) of 816 nM. Moreover, the EC50 was 151 nM on 5HT2A receptor [2] (setting [8]) and 247 nM at 5HT2A receptor [3] (HEK293T cells). Further, the Emax on 5HT2A receptor [2] (setting [9]) stood at 102%; at 5HT2A receptor [3] (HEK293T cells) it was 42.9%.
The corresponding values for `Clc1ccnc2[nH]cc(C3=CCCNC3)c12` [Example 11, 4-chloro-3-(1,2,5,6-tetrahydropyridin-3-yl)-1H-pyrrolo[2,3-b]pyridine] are 273 nM, 79.9 nM, 904 nM, 84.7% and 43.7%.
Turning to `Fc1cc(Cl)c2[nH]nc(N3CCNCC3)c2c1` [Example 232, 7-chloro-5-fluoro-3-(piperazin-1-yl)-1H-indazole], affinity on 5HT2A receptor [1] (setting [4]) was put at a Ki of 1540 nM. In addition, the concentration giving a half-maximal response (EC50) was found to be 170 nM on 5HT2A receptor [2] (setting [10]) and 1970 nM on 5HT2A receptor [3] (HEK293T). The Emax was found to be 48.4% at 5HT2A receptor [2] (setting [6]) and 29% on 5HT2A receptor [3] (HEK293T).
Take `Cc1cccc2[nH]nc(C3=CCCNC3)c12` [Example 80, 4-methyl-3-(1,2,5,6-tetrahydropyridin-3-yl)-1H-indazole]: the affinity at 5HT2A receptor [1] (setting [7]), expressed as Ki, was 254 nM. In addition, the negative logarithm of the EC50 (pEC50) on 5HT2A receptor [2] (setting [11]) was 7.13. In addition, the maximal response (Emax) at 5HT2A receptor [2] (setting [9]) amounted to 83.4%. Also, on 5HT2A receptor [3] (HEK293T cells), a half-maximal response (EC50) required 698 nM and the Emax stood at 71.8%.
Regarding `Fc1ccc2c(C34CNCC3C4)c[nH]c2c1` (centres unmarked) [Example 281, 3-(3-azabicyclo[3.1.0]hexan-1-yl)-6-fluoro-1H-indole], the pKi at 5HT2A receptor [1] (setting [4]) was 7.21. Moreover, the pEC50 on 5HT2A receptor [2] (setting [5]) was 7.28. In addition, the figures for the maximal response (Emax) on 5HT2A receptor [2] (setting [6]) and on 5HT2A receptor [3] (HEK293T) were 66.3% and 27.9%, respectively. At 5HT2A receptor [3] (HEK293T), this compound came in with an EC50 of 369 nM.
On to `FC(F)(F)CCN1CCC=C(c2n[nH]c3c(Cl)cccc23)C1` [Example 164, 7-chloro-3-(1-(3,3,3-trifluoropropyl)-1,2,5,6-tetrahydropyridin-3-yl)-1H-indazole], for which the Ki on 5HT2A receptor [1] (setting [4]) is > 10000 nM. Further, the concentration giving a half-maximal response (EC50) was 518 nM at 5HT2A receptor [2] (setting [10]) and 836 nM at 5HT2A receptor [3] (HEK293T). For the same compound, the Emax was found to be 52.9% at 5HT2A receptor [2] (setting [6]) and 23.3% on 5HT2A receptor [3] (HEK293T).
The compound `CCCN1CC=C(c2n[nH]c3c(Cl)cccc23)C1` [Example 213, 7-chloro-3-(1-propyl-2,5-dihydro-1H-pyrrol-3-yl)-1H-indazole] gave an inhibition constant (Ki) at 5HT2A receptor [1] (setting [4]) of 1770 nM. The negative logarithm of the EC50 (pEC50) on 5HT2A receptor [2] (setting [5]) is 7.14. For the same compound, the maximal effect (Emax) at 5HT2A receptor [2] (setting [6]) amounted to 61.3%. Moreover, on 5HT2A receptor [3] (HEK293T), the response was half-maximal at 211 nM (EC50) and the Emax amounted to 31.5%.
For `CN1CCC=C(c2c[nH]c3nccc(Cl)c23)C1` [Example 15, 4-chloro-3-(1-methyl-1,2,5,6-tetrahydropyridin-3-yl)-1H-pyrrolo[2,3-b]pyridine], the Ki on 5HT2A receptor [1] (setting [7]) is 465 nM. Besides, the EC50 at 5HT2A receptor [2] (setting [8]) came out at 23.5 nM; at 5HT2A receptor [3] (HEK293T cells), 683 nM. Further, the figures for the Emax on 5HT2A receptor [2] (setting [9]) and at 5HT2A receptor [3] (HEK293T cells) were 68.8% and 31.5%, respectively.
As for `COc1cccc2[nH]nc(C3=CCCNC3)c12` [Example 83, 4-methoxy-3-(1,2,5,6-tetrahydropyridin-3-yl)-1H-indazole], the pKi at 5HT2A receptor [1] (setting [7]) was 7.10. In addition, the pEC50 at 5HT2A receptor [2] (setting [11]) is 7.90; at 5HT2A receptor [3] (HEK293T cells), 6.96. For the same compound, the maximum response (Emax) was found to be 81.7% at 5HT2A receptor [2] (setting [9]) and 75.9% on 5HT2A receptor [3] (HEK293T cells).
`CN1CCC=C(c2c[nH]c3nccc(-c4ccccc4)c23)C1` [Example 16, 3-(1-methyl-1,2,5,6-tetrahydropyridin-3-yl)-4-phenyl-1H-pyrrolo[2,3-b]pyridine]: the affinity at 5HT2A receptor [1] (setting [7]) corresponds to a Ki of 164 nM. On 5HT2A receptor [3] (HEK293T cells), it took 2140 nM to reach a half-maximal effect (EC50) and the Emax is 49.6%.
In turn, `CCc1ccc2[nH]cc(C3=CCCN(C)C3)c2c1` [Example 26, 5-ethyl-3-(1-methyl-1,2,5,6-tetrahydropyridin-3-yl)-1H-indole] came in with a Ki at 5HT2A receptor [1] (setting [7]) of 166 nM. This compound showed a 50% effective concentration (EC50) at 5HT2A receptor [2] (setting [8]) of 177 nM. Also, on 5HT2A receptor [2] (setting [9]), the maximum response (Emax) amounted to 64.2%.
Consider `Clc1cccc2c(C34CNCC3C4)c[nH]c12` (single isomer, unassigned) [Example 278, 3-(3-azabicyclo[3.1.0]hexan-1-yl)-7-chloro-1H-indole], for which, on 5HT2A receptor [1] (setting [4]), the negative-log Ki (pKi) was 7.48. Also, the “5HTA Gq Emax (%)” value at 5HT2A receptor [2] (BRET2 Gαq dissociation, HEK293T, normalized to 5-HT) is reported as 58.2%. For the same compound, the negative-log EC50 (pEC50) at 5HT2A receptor [2] (setting [5]) is 8.03.
Take `CN1CC(c2c[nH]c3c(F)cccc23)C1` [Example 260, 7-fluoro-3-(1-methylazetidin-3-yl)-1H-indole]: the inhibition constant (Ki) on 5HT2A receptor [1] (setting [4]) was determined as 357 nM. In addition, a half-maximal response at 5HT2A receptor [2] (setting [10]) (EC50) required 422 nM. At 5HT2A receptor [2] (setting [6]), the maximal effect (Emax) was 63.1%.
For `Cc1cccc2c(C34CNCCC3C4)c[nH]c12` (centres unmarked) [Example 271, 3-(3-azabicyclo[4.1.0]heptan-1-yl)-7-methyl-1H-indole], in that order: 3150 nM, 327 nM and 80.1%.
On 5HT2A receptor [1] (setting [4]), `Clc1cccc2c(C3=CCCN(CC4CC4)C3)n[nH]c12` [Example 151, 7-chloro-3-(1-(cyclopropylmethyl)-1,2,5,6-tetrahydropyridin-3-yl)-1H-indazole] yielded a Ki of 198 nM. Moreover, the concentration for a half-maximal effect (EC50) on 5HT2A receptor [2] (setting [10]) is 61.1 nM. Also, at 5HT2A receptor [2] (setting [12]), the maximal response (Emax) worked out at 38.8%.
`CC(C)c1cccc2c(C3CNC3)c[nH]c12` [Example 262, 3-(azetidin-3-yl)-7-isopropyl-1H-indole] gave a Ki at 5HT2A receptor [1] (setting [4]) of 1910 nM. For the same compound, at 5HT2A receptor [2] (setting [10]), the EC50 amounted to 316 nM. Also, on 5HT2A receptor [2] (setting [6]), the Emax worked out at 114%.
The compound `COc1cccc2c(C3=CCCN(Cc4ccccc4)C3)c[nH]c12` [Example 71, 3-(1-benzyl-1,2,5,6-tetrahydropyridin-3-yl)-7-methoxy-1H-indole] showed an inhibition constant Ki on 5HT2A receptor [1] (setting [7]) of 448 nM. This compound also yielded an EC50 at 5HT2A receptor [2] (setting [8]) of 530 nM. Besides, the Emax at 5HT2A receptor [2] (setting [9]) was 65.2%.
Regarding `Cc1cc(Cl)cc2c(C3CNC3)c[nH]c12` [Example 263, 3-(azetidin-3-yl)-5-chloro-7-methyl-1H-indole], the Ki at 5HT2A receptor [1] (setting [4]) came out at 244 nM. Further, at 5HT2A receptor [2] (setting [10]), the 50% effective concentration (EC50) came to 127 nM. In addition, on 5HT2A receptor [2] (setting [6]), the maximum response (Emax) came to 63.7%.
For `Fc1cc(Cl)c2[nH]nc(C34CNCCC3C4(F)F)c2c1` (centres unmarked) [Example 191, 7-chloro-3-(7,7-difluoro-3-azabicyclo[4.1.0]heptan-1-yl)-5-fluoro-1H-indazole], in that order: 3040 nM, 1620 nM and 83%.
For the compound `CCCN1CC=C(c2c[nH]c3c(Cl)cccc23)CC1` [Example 243, 7-chloro-3-(1-propyl-1,2,3,6-tetrahydropyridin-4-yl)-1H-indole], the Ki at 5HT2A receptor [1] (setting [4]) is 27.2 nM. For the same compound, on 5HT2A receptor [2] (setting [10]), the half-maximal effective concentration (EC50) was 104 nM. Also, on 5HT2A receptor [2] (setting [12]), the Emax is 41.9%.
`Clc1cccc2c(C34CNCCC3C4)n[nH]c12` (centres unmarked) [Example 181, 3-(3-azabicyclo[4.1.0]heptan-1-yl)-7-chloro-1H-indazole] gave a Ki on 5HT2A receptor [1] (setting [4]) of 842 nM. Moreover, the midpoint of the response on 5HT2A receptor [2] (setting [10]), the EC50, lay at 120 nM. Further, the Emax at 5HT2A receptor [2] (setting [12]) amounted to 61.3%.
Consider `C1=C(c2c[nH]c3ccncc23)CNCC1` [Example 141, 3-(1,2,5,6-tetrahydropyridin-3-yl)-1H-pyrrolo[3,2-c]pyridine], for which the affinity at 5HT2A receptor [1] (setting [4]) corresponds to a Ki of 739 nM. At 5HT2A receptor [2] (setting [10]), the response was half-maximal at 631 nM (EC50). In addition, the Emax on 5HT2A receptor [2] (setting [6]) was determined as 91.3%.
